Experimental data as given in ChEMBL document CHEMBL5532661, “Discovery of a Novel Glucagon-like Peptide-1 (GLP-1) Analogue from Bullfrog and Investigation of Its Potential for Designing GLP-1-Based Multiagonists” (J Med Chem, 2024).
Calls of active or inactive are those of the source. No cut-off for these calls is given here. Numbered stars: 1 amine (or outer) side, 2 acyl side, 3 side chain; on linkers, the order of the positions; unused ones are H or OH. Square brackets hold non-standard residues; d marks the D form. Side chains are listed from the residue outwards. Peptide text beside a SMILES is read from it. * marks the point of attachment. C20 diacid = O=C(O)CCCCCCCCCCCCCCCCCCC(=O)*; C18 diacid = O=C(O)CCCCCCCCCCCCCCCCC(=O)*; γGlu = O=C(O)[C@H](CCC(=O)[*:2])N[*:1]; AEEA = NCCOCCOCC(=O)O; Aib = CC(C)(N)C(=O)O

Experiments:
[1] = biological target: T1, Glucagon-like peptide 1 receptor (Homo sapiens, UniProt P43220); assay: Agonist activity at human GLP-1 receptor expressed in HEK293 cells assessed as cAMP level measured after 60 mins by HTRF based assay; format: functional, cell-based
[2] = biological target: T1, Glucagon-like peptide 1 receptor; assay: Agonist activity at human GLP-1 receptor expressed in HEK293 cells assessed as cAMP level by measuring relative percent (GLP-1 EC50/compound EC50) measured after 60 mins by HTRF based assay relative to GLP-1; format: functional, cell-based; conditions: filed as agonist
Glucagon receptor [3] = biological target: T2, Glucagon receptor (Homo sapiens, UniProt P47871); assay: Agonist activity at human GCGR expressed in HEK293 cells assessed as cAMP level measured after 60 mins by HTRF based assay; format: functional, cell-based
Glucagon receptor [4] = biological target: T2, Glucagon receptor; assay: Agonist activity at human GCGR expressed in HEK293 cells assessed as cAMP level by measuring relative percent (glucagon EC50/compound EC50) measured after 60 mins by HTRF based assay relative to glucagon; format: functional, cell-based
[5] = biological target: T3, Gastric inhibitory polypeptide receptor (Homo sapiens, UniProt P48546); assay: Agonist activity at human GIPR receptor expressed in HEK293 cells assessed as cAMP level measured after 60 mins by HTRF based assay; format: functional, cell-based
T3 sequence (P48546 whole entry): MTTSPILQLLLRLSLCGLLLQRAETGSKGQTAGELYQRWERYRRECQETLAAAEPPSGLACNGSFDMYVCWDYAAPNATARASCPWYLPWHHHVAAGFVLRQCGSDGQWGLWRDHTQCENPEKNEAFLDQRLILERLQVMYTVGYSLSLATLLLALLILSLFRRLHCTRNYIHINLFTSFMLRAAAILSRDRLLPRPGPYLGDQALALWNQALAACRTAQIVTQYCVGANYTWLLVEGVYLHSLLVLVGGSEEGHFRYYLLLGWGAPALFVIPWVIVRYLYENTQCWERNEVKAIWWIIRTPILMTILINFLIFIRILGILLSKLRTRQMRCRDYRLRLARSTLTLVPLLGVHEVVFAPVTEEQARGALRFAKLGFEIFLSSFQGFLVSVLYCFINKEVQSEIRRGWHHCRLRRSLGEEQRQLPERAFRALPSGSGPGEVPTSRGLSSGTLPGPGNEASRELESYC

[6] = biological target: T4, Gastric inhibitory polypeptide receptor (Homo sapiens) (UniProt P48546); assay: Agonist activity at human GIPR receptor expressed in HEK293 cells assessed as cAMP level by measuring relative percent (GIP EC50/compound EC50) measured after 60 mins by HTRF based assay relative to GIP; format: functional, cell-based
T4 sequence (whole entry): T3 sequence (P48546 whole entry)

Mus musculus [7] = assay: Hypoglycemic effect in ICR mouse treated with 3 g/kg glucose assessed as reduction in blood glucose level at 100 nmol/kg, sc measured upto 120 mins by acute glucose lowering test; format: functional, organism-based
Mus musculus [8] = assay: Hypoglycemic effect in ICR mouse treated with 3 g/kg glucose assessed as reduction in blood glucose level at 30 nmol/kg, sc measured upto 120 mins pretreated with GLP-1R antagonist by OGTT; format: functional, organism-based
Mus musculus [9] = assay: Anorexigenic effect in ICR mouse assessed as decrease in food intake at 30 nmol/kg, sc measured upto 72 hrs by acute food intake study; format: functional, organism-based
Mus musculus [10] = assay: Antihyperglycemic effect in DIO mouse assessed as antihyperglycemic duration by measuring blood glucose at 30 nmol/kg, sc administered twice daily measured by hypoglycemic duration assay; format: functional, organism-based
Mus musculus [11] = assay: Reduction in body weight in DIO mouse at 30 nmol/kg, sc treated every 2 and half day once measured after 21 days; format: functional; design: scale not given: the % may be the effect or the level left; conditions: time 21.0 day
Mus musculus [12] = assay: Reduction in serum AST in DIO mouse at 30 nmol/kg, sc treated every 2 and half day once measured after 21 days; format: functional, organism-based; conditions: time 21.0 day
Mus musculus [13] = assay: Reduction in serum ALT in DIO mouse at 30 nmol/kg, sc treated every 2 and half day once measured after 21 days; format: functional, organism-based; conditions: time 21.0 day

T1 sequence (P43220 whole entry): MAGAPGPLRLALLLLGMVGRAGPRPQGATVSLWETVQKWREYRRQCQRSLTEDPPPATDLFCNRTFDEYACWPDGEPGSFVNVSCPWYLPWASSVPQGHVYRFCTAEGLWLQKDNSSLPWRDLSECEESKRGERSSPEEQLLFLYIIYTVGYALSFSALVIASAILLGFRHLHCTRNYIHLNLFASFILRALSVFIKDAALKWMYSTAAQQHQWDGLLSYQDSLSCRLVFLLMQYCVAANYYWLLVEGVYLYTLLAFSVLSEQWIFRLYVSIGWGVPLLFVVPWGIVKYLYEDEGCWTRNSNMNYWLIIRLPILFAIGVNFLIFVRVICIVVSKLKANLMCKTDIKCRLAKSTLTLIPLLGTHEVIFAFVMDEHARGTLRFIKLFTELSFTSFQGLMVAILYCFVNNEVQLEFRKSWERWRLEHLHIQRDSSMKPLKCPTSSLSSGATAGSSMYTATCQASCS
T2 sequence (P47871 whole entry): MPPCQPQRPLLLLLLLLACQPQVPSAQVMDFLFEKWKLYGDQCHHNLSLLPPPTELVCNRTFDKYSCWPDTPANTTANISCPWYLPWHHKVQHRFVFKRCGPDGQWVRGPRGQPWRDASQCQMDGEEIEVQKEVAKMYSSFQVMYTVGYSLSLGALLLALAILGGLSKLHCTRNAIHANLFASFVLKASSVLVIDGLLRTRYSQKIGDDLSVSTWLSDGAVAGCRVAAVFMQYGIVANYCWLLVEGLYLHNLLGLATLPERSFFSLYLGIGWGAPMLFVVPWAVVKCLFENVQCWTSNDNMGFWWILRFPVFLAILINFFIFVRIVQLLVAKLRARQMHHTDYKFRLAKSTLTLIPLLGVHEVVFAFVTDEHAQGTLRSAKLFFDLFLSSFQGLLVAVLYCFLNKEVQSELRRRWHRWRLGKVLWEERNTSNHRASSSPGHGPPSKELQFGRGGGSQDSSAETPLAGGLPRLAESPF

Compound	EC50 [1]	Activity [2]	EC50 (Glucagon receptor [3])	Activity (Glucagon receptor [4])	EC50 [5]	Activity [6]	Activity (Mus musculus [7])	Activity (Mus musculus [8])	Activity (Mus musculus [9])	Activity (Mus musculus [10])	Activity (Mus musculus [11])	Activity (Mus musculus [12])	Activity (Mus musculus [13])
CC[C@H](C)[C@H](NC(=O)[C@H](CCCCNC(=O)COCCOCCNC(=O)COCCOCCNC(=O)CC[C@H](NC(=O)CCCCCCCCCCCCCCCCC(=O)O)C(=O)O)NC(=O)[C@H](CCC(=O)O)NC(=O)[C@H](CCSC)NC(=O)[C@H](C)NC(=O)[C@H](CCCNC(=N)N)NC(=O)[C@H](CO)NC(=O)[C@H](CCSC)NC(=O)[C@H](CC(=O)O)NC(=O)[C@H](CO)NC(=O)[C@@H](NC(=O)[C@H](Cc1ccccc1)NC(=O)[C@@H](NC(=O)CNC(=O)[C@H](CCC(N)=O)NC(=O)C(C)(C)NC(=O)[C@@H](N)Cc1c[nH]cn1)[C@@H](C)O)[C@@H](C)O)C(=O)N[C@@H](C)C(=O)N[C@H](C(=O)N[C@@H](CCCNC(=N)N)C(=O)N[C@@H](CC(C)C)C(=O)N[C@@H](Cc1ccccc1)C(=O)N[C@H](C(=O)N[C@@H](CC(=O)O)C(=O)N[C@@H](Cc1c[nH]c2ccccc12)C(=O)N[C@@H](CC(C)C)C(=O)N[C@H](C(=O)N[C@@H](CCC(=O)O)C(=O)NCC(=O)NCC(=O)N1CCC[C@H]1C(=O)N[C@@H](CO)C(=O)N[C@@H](CO)C(=O)NCC(=O)N[C@@H](C)C(=O)N1CCC[C@H]1C(=O)N1CCC[C@H]1C(=O)N1CCC[C@H]1C(=O)N[C@@H](CO)C(N)=O)[C@@H](C)CC)C(C)C)C(C)C (H-H[Aib]QGTFTSDMSRAMEK([AEEA-AEEA-γGlu-C18 diacid])IAVRLFVDWLIEGGPSSGAPPPS-NH2)	19 pM	279%	610 pM	15%	830 pM	3%	–	–	–	–	–	–	–
CC[C@H](C)[C@H](NC(=O)[C@H](CCCCNC(=O)COCCOCCNC(=O)COCCOCCNC(=O)CC[C@H](NC(=O)CCCCCCCCCCCCCCCCCCC(=O)O)C(=O)O)NC(=O)[C@H](CCC(=O)O)NC(=O)[C@H](CCSC)NC(=O)[C@H](C)NC(=O)[C@H](CCCNC(=N)N)NC(=O)[C@H](CO)NC(=O)[C@H](CCSC)NC(=O)[C@H](CC(=O)O)NC(=O)[C@H](CO)NC(=O)[C@@H](NC(=O)[C@H](Cc1ccccc1)NC(=O)[C@@H](NC(=O)CNC(=O)[C@H](CCC(N)=O)NC(=O)C(C)(C)NC(=O)[C@@H](N)Cc1c[nH]cn1)[C@@H](C)O)[C@@H](C)O)C(=O)N[C@@H](C)C(=O)N[C@H](C(=O)N[C@@H](CCCNC(=N)N)C(=O)N[C@@H](CC(C)C)C(=O)N[C@@H](Cc1ccccc1)C(=O)N[C@H](C(=O)N[C@@H](CC(=O)O)C(=O)N[C@@H](Cc1c[nH]c2ccccc12)C(=O)N[C@@H](CC(C)C)C(=O)N[C@H](C(=O)N[C@@H](CCC(=O)O)C(=O)NCC(=O)NCC(=O)N1CCC[C@H]1C(=O)N[C@@H](CO)C(=O)N[C@@H](CO)C(=O)NCC(=O)N[C@@H](C)C(=O)N1CCC[C@H]1C(=O)N1CCC[C@H]1C(=O)N1CCC[C@H]1C(=O)N[C@@H](CO)C(N)=O)[C@@H](C)CC)C(C)C)C(C)C (H-H[Aib]QGTFTSDMSRAMEK([AEEA-AEEA-γGlu-C20 diacid])IAVRLFVDWLIEGGPSSGAPPPS-NH2)	20 pM	265%	800 pM	12%	890 pM	3%	–	–	–	–	–	–	–
SEMAGLUTIDE	–	–	–	–	–	–	Active	inactive	Active	Active	18.6%	Active	Active
